Earlier results, collected in patent publication US7713550B2, “Controlled release sodium valproate formulation” (Andrx Corporation, priority 2004, dated 2010).

Conditions: for valproic acid

Structure (SMILES): CCCC(CCC)C(=O)O [divalproex sodium]
- solubility: 1270 µg/mL
